Measurements published in PMC11094307, “Marine-derived EGFR inhibitors: novel compounds targeting breast cancer growth and drug resistance” (Frontiers in Pharmacology, 2024).
Values joined by “and” are separate entries in the source; they are usually repeats but may differ in a detail not shown here. Equal entries are not always repeated.

Legend:
A431 cells = experiment: MTT assay, A431; type: cell-based, human; conditions: A431 (high EGFR-expressing), 10 μM
Experimental: (§1) The cell lines MCF-7 and A431 were cultured in Dulbecco’s Modified Eagle’s Medium (DMEM, Gibco, USA), while HL-60, H1299, and A549 cells were maintained in RPMI-1640 medium (Gibco, USA). Both mediums were enriched with 10% fetal bovine serum and 1% penicillin/streptomycin. […] All cell cultures were incubated at 37°C in an atmosphere containing 5% CO2.
(§2) Cells in the exponential growth phase were seeded into 96-well plates and allowed to adhere overnight. Subsequently, they were treated in triplicate with various concentrations of the compounds (0, 1.56, 3.13, 6.25, 12.5, 25, 50, 100 µM), […]. After 24 h, 20 µL of Methyl-thiazolyldiphenyl-tetrazolium bromide (MTT, 5 mg/mL, Thermo Fisher Scientific) was added to each well and incubated for a minimum of 4 h. Following the incubation, the medium containing the compounds and MTT was removed from each well, and 200 µL of dimethyl sulfoxide (DMSO) was added. The plates were then shaken for 10 min at 37°C to dissolve the formazan crystals. The absorbance was measured using a microplate reader (BioTek Synergy 4) at a wavelength of 490 nm.

MCF-10A cells = experiment: MTT assay, MCF-10A; type: cell-based, human; conditions: MCF-10A (non-tumorigenic epithelial), 10 μM
Experimental: as §1, §2

MCF-7 cells = experiment: Cell cycle analysis by flow cytometry (PI); type: cell-based, human; conditions: 20 μM, 24 h
Experimental: After 24 h of treatment with various concentrations of compounds, MCF-7 cells were harvested and washed twice with phosphate-buffered saline (PBS). For cell cycle analysis, the cells were initially fixed with 70% ethanol at 4°C overnight and subsequently washed with PBS. The fixed cells were then resuspended in 1× PBS containing 0.5% Triton X-100, 50 μg/mL propidium iodide (PI), and 50 μg/mL DNase-free RNase A, and incubated at 37°C for 30 min in darkness. Following incubation, cell cycle distribution was assessed using a BD FACSCanto™ flow cytometer.

Cleaved Caspase-3 = experiment: Western blotting of MCF-7 lysates, cleaved caspase-3; type: cell-based, human; conditions: for Cleaved Caspase-3 WB Normalized: control 0 µM 0.213235397
Experimental: (§3) MCF-7 cell lysates were prepared by rinsing the cells twice with PBS and then solubilizing them in lysis buffer (NP40 supplemented with protease and phosphatase inhibitor cocktails) on ice. The solubilization process involved rotating the lysis buffer/cell mixture end over end for 10 min at 4°C. After centrifugation for 10 min at 4°C to remove insoluble material, the protein concentration of the solubilized protein was determined using a BCA assay. Subsequently, samples were diluted in SDS sample buffer. Equivalent amounts of protein were separated by SDS-PAGE, transferred to PVDF membranes, and probed with the indicated antibody. Prior to incubation with primary antibodies overnight at 4°C, the membranes were blocked with 5% skim milk-TBST. The antibodies and their sources were as follows: PARP1 (1:500, Santa Cruz Biotechnology), Cleaved Caspase-3 (1:1000, Cell Signaling Technology), BAX (1:500, Santa Cruz Biotechnology), BCL-2 (1:500, Santa Cruz Biotechnology), and GAPDH (1:500, Santa Cruz Biotechnology). Following incubation with horseradish peroxidase-conjugated goat anti-mouse or goat anti-rabbit secondary antibody (Santa Cruz Biotechnology), the detected proteins were visualized using the Pierce Enhanced Chemiluminescence (ECL) reagent and a UV Products imaging system. Band intensities were quantified using the National Institutes of Health ImageJ software.

BAX = experiment: Western blotting of MCF-7 lysates, BAX; type: cell-based, human; conditions: for BAX WB Normalized: control 0 µM 0.795076455
Experimental: as §3

EGFR L858R/T790M = target: T1, EGFR L858R/T790M (Homo sapiens, UniProt P00533, L858R/T790M); experiment: Kinase inhibition assay (ADP-Glo, Promega); type: biochemical; conditions: in vitro kinase assay; read-out: IC50 against EGFR L858R/T790M
T1 construct: purchased Promega Corporation, USA
Experimental: (§4) The extracellular ligand-binding domain of EGFR, tagged with His, and the intracellular tyrosine kinase (TK) domain of EGFR, tagged with GST, were acquired from Sinobiological, China. […] Cell lines including MCF-7, A549, A431, H1299, HL-60, and MCF-10A were obtained from the China Infrastructure Cell Line Resources.
(§5) The experiments were conducted in accordance with the manufacturer’s guidelines (Promega). The procedure began with a kinase reaction, where 5 μL of 1× kinase buffer was utilized, and the mixture was incubated at room temperature for 60 min. This step was followed by the addition of 5 μL of ADP-Glo™ reagent to terminate the kinase reaction and to deplete any remaining ATP, with a subsequent incubation period of 40 min at room temperature. Next, 10 μL of kinase detection reagent was added to convert ADP back into ATP, and luciferase along with luciferin was introduced to facilitate ATP detection. This mixture was then incubated at room temperature for an additional 30 min. Detection was carried out using a BioTek Synergy4 instrument, and data analysis, including curve fitting and presentation, was performed using GraphPad Prism version 5.0.
(§6) All experiments were repeated at least three times, and the data are presented as mean ± standard deviation (SD). The statistical analyses were performed using Origin. EC50 or IC50 values were obtained by fitting the data to a four-parameter Hill model of the graph of log dose against percentage cell viability or inhibition from at least three sets of experiments. Difference between two groups were analyzed by Student’s t test (two-sided) and significance was set at p < 0.05. The specific details about statistical methods are introduced in respective figure legends.

WT EGFR = target: T2, WT EGFR (Homo sapiens, UniProt P00533); experiment: Kinase inhibition assay (ADP-Glo, Promega); type: biochemical; conditions: in vitro kinase assay; read-out: IC50 against WT EGFR
T2 construct: purchased Promega Corporation, USA
T2 sequence (P00533 25-1210): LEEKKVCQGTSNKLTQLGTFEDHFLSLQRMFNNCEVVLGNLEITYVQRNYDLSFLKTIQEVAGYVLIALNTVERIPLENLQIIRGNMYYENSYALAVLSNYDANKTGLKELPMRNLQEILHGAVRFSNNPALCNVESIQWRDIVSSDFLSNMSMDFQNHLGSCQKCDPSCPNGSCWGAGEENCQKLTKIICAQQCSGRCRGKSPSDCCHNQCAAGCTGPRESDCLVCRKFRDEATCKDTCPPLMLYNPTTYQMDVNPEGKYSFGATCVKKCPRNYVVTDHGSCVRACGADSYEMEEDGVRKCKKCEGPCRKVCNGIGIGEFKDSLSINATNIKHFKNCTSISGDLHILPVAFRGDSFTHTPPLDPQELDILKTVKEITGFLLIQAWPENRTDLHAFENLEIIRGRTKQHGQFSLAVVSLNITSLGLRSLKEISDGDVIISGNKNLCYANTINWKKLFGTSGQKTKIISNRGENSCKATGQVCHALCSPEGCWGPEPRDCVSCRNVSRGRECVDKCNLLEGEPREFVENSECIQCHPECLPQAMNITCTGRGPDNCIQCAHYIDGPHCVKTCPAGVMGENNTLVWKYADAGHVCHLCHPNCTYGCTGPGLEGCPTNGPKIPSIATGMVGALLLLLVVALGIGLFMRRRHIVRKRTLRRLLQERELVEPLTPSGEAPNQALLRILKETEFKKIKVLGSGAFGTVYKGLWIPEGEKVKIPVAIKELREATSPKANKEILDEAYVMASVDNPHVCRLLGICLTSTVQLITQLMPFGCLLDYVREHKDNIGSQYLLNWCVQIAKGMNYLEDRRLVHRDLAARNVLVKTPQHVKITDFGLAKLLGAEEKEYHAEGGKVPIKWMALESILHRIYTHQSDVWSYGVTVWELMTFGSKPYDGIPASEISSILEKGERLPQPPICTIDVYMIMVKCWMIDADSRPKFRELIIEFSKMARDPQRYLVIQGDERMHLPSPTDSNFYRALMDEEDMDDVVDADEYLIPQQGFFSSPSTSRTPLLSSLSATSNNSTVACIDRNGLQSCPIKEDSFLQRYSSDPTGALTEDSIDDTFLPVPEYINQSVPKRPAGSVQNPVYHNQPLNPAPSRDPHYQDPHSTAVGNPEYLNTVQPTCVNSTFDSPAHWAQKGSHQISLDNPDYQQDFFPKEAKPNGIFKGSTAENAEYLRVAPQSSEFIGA
Experimental: as §4, §5, §6

ABL = ABL (Homo sapiens, UniProt P00519); experiment: Kinase profiling; type: biochemical; conditions: one of the other seven tyrosine kinases
Experimental: as §5

ECK = ECK (Homo sapiens, UniProt P29317); experiment: Kinase profiling; type: biochemical; conditions: one of the other seven tyrosine kinases
Experimental: as §5

FAK = FAK (Homo sapiens, UniProt Q05397); experiment: Kinase profiling; type: biochemical; conditions: one of the other seven tyrosine kinases
Chain of FAK (Q05397 whole entry): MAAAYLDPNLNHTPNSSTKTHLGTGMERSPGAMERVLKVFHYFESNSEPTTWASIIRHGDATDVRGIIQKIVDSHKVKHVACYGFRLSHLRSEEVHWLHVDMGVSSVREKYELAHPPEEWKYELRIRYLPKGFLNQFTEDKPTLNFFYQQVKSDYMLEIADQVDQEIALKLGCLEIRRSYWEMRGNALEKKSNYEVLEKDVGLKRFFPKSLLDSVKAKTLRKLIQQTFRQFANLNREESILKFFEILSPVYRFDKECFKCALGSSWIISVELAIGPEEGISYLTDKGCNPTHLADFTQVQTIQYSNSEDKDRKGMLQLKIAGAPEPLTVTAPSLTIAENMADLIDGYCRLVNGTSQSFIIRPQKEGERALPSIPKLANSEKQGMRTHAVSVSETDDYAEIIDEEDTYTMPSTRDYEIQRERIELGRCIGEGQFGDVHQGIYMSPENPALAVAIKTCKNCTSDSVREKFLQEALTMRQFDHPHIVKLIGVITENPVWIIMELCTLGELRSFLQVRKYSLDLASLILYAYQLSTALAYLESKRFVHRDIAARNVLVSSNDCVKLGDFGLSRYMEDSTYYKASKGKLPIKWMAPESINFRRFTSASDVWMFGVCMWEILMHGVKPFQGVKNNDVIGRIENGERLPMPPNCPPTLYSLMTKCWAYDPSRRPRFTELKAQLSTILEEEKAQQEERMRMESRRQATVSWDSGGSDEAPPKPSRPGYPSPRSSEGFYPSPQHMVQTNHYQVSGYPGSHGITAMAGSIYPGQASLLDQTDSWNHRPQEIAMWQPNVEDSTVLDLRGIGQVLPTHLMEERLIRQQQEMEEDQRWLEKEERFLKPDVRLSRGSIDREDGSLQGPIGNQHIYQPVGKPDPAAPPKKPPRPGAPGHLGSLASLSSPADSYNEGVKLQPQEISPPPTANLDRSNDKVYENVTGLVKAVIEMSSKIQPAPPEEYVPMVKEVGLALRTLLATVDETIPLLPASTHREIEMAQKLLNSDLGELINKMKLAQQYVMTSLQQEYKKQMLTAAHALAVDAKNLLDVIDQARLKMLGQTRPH
Experimental: as §5

FGFR1 = FGFR1 (Homo sapiens, UniProt P11362); experiment: Kinase profiling; type: biochemical; conditions: one of the other seven tyrosine kinases
Experimental: as §5

FGFR3 = FGFR3 (Homo sapiens, UniProt P22607); experiment: Kinase profiling; type: biochemical; conditions: one of the other seven tyrosine kinases
Chain of FGFR3 (P22607 23-806): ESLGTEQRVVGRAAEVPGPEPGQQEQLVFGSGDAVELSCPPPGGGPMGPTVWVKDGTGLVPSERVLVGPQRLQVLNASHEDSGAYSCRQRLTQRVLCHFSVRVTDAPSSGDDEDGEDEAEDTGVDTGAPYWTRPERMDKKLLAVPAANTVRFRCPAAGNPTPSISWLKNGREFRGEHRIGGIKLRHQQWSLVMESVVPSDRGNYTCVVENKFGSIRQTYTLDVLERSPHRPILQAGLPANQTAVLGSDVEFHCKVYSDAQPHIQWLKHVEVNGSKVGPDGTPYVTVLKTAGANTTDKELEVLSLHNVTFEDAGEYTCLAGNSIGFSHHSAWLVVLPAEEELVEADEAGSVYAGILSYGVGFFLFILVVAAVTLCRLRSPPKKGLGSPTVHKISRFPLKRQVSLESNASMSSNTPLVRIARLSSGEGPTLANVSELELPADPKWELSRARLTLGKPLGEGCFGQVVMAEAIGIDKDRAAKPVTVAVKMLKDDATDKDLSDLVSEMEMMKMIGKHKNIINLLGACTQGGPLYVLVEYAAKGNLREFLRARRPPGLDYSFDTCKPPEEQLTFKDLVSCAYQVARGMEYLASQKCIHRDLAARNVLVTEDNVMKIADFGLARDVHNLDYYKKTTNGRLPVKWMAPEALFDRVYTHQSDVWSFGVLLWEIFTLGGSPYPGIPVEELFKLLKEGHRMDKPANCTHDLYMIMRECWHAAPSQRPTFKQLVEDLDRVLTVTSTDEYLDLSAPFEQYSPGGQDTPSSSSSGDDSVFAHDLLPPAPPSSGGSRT
Experimental: as §5

FLT1 = FLT1 (Homo sapiens, UniProt P17948); experiment: Kinase profiling; type: biochemical; conditions: one of the other seven tyrosine kinases
Chain of FLT1 (P17948 27-1338): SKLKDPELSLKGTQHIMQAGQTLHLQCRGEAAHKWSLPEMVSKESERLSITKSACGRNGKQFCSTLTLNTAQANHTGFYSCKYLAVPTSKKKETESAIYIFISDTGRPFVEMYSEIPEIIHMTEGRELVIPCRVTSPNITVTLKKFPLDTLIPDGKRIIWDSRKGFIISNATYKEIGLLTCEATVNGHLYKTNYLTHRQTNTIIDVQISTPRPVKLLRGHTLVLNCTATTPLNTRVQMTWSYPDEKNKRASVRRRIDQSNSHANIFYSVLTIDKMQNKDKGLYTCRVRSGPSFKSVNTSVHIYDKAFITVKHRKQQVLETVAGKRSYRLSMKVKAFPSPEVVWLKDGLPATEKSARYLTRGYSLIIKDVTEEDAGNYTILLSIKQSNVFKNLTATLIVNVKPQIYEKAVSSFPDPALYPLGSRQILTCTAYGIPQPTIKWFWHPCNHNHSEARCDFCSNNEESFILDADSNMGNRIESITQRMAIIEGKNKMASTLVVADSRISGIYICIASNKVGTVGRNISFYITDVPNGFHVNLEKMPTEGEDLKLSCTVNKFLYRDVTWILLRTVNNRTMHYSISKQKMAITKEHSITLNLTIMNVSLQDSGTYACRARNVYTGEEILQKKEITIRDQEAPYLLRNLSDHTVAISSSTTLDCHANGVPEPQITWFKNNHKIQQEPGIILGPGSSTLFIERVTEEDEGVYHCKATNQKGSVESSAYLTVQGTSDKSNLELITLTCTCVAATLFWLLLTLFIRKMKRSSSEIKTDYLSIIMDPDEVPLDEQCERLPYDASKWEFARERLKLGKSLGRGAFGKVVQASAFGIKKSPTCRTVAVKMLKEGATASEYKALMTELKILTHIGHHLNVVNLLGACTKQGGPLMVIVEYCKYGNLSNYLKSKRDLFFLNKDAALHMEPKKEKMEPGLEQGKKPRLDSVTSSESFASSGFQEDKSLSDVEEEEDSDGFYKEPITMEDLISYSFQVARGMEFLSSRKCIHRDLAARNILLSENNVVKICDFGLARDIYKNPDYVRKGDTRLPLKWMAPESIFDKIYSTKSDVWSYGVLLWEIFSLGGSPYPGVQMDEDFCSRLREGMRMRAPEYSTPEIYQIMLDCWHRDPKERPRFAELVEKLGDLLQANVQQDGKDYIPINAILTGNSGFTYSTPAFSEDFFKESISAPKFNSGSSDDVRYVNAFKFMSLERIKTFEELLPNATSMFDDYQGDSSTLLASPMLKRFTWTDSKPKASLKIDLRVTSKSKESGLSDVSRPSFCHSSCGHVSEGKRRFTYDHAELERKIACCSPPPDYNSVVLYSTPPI
Experimental: as §5

In the case of `COC(=O)C/C(C)=C/C(=O)O[C@@H]1C[C@@H](C)[C@H]2[C@@H](C=C[C@H](CC(C)C)[C@]2(C)C(=O)/C=C\O)[C@@H]1O` [Tandyukisin], the cell lethality percentage (A431 cells) is reported as 67.3% ± 2.7%, the cell lethality percentage (MCF-10A cells) is reported as 8.9% ± 1.5% and the “percentage of cells in G0/G1 phase” value (MCF-7 cells) is reported as 85.67%. For the same compound, the “Cleaved Caspase-3 WB Gray Value” (Cleaved Caspase-3; 5 µM) was 17172.004, the “Cleaved Caspase-3 WB Normalized” value (Cleaved Caspase-3; 5 µM) was 0.3916 and the “Cleaved Caspase-3 WB Gray Value” (Cleaved Caspase-3; 10 µM) was 22734.418. For the same compound, the “Cleaved Caspase-3 WB Normalized” value (Cleaved Caspase-3; 10 µM) was 0.5222, the “Cleaved Caspase-3 WB Gray Value” (Cleaved Caspase-3; 20 µM) was 173083.238 and the “Cleaved Caspase-3 WB Normalized” value (Cleaved Caspase-3; 20 µM) was 5.061. For the same compound, the “expression level of cleaved caspase-3 protein” value (Cleaved Caspase-3; MCF-7, upon treatment) was “increased”, the “BAX WB Gray Value” (BAX; 5 µM) was 19561.731 and the “BAX WB Normalized” value (BAX; 5 µM) was 0.4461. The “BAX WB Gray Value” (BAX; 10 µM) was 48768.744, the “BAX WB Normalized” value (BAX; 10 µM) was 1.12 and the “BAX WB Gray Value” (BAX; 20 µM) was 33049.489. The “BAX WB Normalized” value (BAX; 20 µM) was 0.9664, the IC50 (EGFR L858R/T790M) was 237 ± 28 nM and the IC50 (WT EGFR) was 10.6 nM and 10 nM and ~10 nM. For the same compound, the IC50 (ABL) was greater than 100000 nM, the IC50 (ECK) was greater than 100000 nM and the IC50 (FAK) was greater than 100000 nM. For the same compound, the IC50 (FGFR1) was greater than 100000 nM, the IC50 (FGFR3) was greater than 100000 nM and the IC50 (FLT1) was greater than 100000 nM.
